# Experimental data as given in article PMC11129195, “Novel Re(I) Complexes as Potential Selective Theranostic Agents in Cancer Cells and In Vivo in Caenorhabditis elegans Tumoral Strains” (Journal of Medicinal Chemistry, 2024).
# Experiments:
# A2780 cells [1] = experiment: Mitochondrial membrane potential, JC-1 staining; format: cell-based, human; settings: Re9 1.25 and 2.5 μM, 24 h, antimycin A 6 h
# Description: After the treatment period, the cells were collected and resuspended in prewarmed PBS containing JC-1 (1 μM). The cell suspension was then incubated for 30 min at 37 °C. Following the incubation, the cells were washed twice with PBS and immediately analyzed using a flow cytometer (FACSCAlibur Beckton Dickinson). Fluorescence measurements were performed by detecting both the monomeric (emission at 530 ± 30 nm; green) and aggregated (emission at 585 ± 30 nm; red) forms of JC-1 upon excitation at 488 nm. For each sample, a total of 10,000 events were acquired during the analysis.
# C. elegans strain JK1466 = tested on: C. elegans strain JK1466; design: method as in earlier work; settings: ref "Recent studies"; cited from earlier work
# A2780 = experiment: MTT antiproliferative activity in A2780 cells; format: cell-based, human; settings: MTT test, 48 h of treatment
# Description: (§1) Human ovarian carcinoma cell lines (A2780) were cultured in RPMI-1640 medium, while the human cervix adenocarcinoma cell line (HeLa), tumor breast cancer cell line, and nontumorigenic buffalo green monkey cells (BGM) were cultured in DMEM and EMEM (containing nonessential amino acids) medium. The cell culture media were supplemented with 10% fetal bovine serum (FBS), 1% L-glutamine, and 1% penicillin/streptomycin. The cells were maintained in a humidified incubator at 37 °C with a 5% CO2 atmosphere and subcultured 2–3 times a week, each with an appropriate density for its specific cell line. Prior to the experiments, the cell lines were confirmed to be free from mycoplasma contamination using Hoechst DNA staining standard procedures. During cell-based assays, the maximum amount of dimethyl sulfoxide (DMSO) added as a solvent for treatment was limited to 0.4% (v/v) to avoid any potential vehicle-induced toxicity to the cells. Cells were cultured in 96-well plates and allowed to reach confluence. The tested compounds were dissolved in DMSO at a maximum concentration of 0.4% (v/v) and immediately diluted with fresh media. The cells were then incubated with varying concentrations of the Re1–Re9 for 48 h at 37 °C. […] The absorbance at 570 nm was measured using a microplate reader (FLUOstar Omega).
# wild-type C. elegans = tested on: wild-type C. elegans; design: method as in PMID 29752286; settings: 100 μM, cited from earlier work
# C. elegans strain MT2124 = format: in vivo, Caenorhabditis elegans
# Source text: Caenorhabditis elegans strains JK1466 [gld-1(q485)/dpy-5(e61) unc-13(e51)] and MT2124 [let-60(n1046)] were kindly donated by the Caenorhabditis Genetic Center (CGC, Saint Paul, Minnesota, United States), which is funded by the “NIH Office of Research Infrastructure Programs” (P40 OD010440). The strains were maintained and cultured following the protocols established by Stiernagle.[78]−[80] Synchronous cohorts of C. elegans prepared using the bleach method were used in all the assays.
# MT2124 (Muv phenotype) L1 larvae were incubated for 72 h at 20 °C in S basal medium with different concentrations of Re9 (0.1–150 μM) supplemented with E. coli OP50. Antitumoral evaluation was performed following the protocol described by Medina and coauthors with modifications.[81] Ten microliters of a suspension containing young adult nematodes were place in a microscope slide along with 10 μL of sodium azide to reduce its movement. Images of whole worms were taken at 10× magnification using the bright-field microscope. The animals were classified as multivulva (MT) if they had more than one vulva protruding from the […] (Figure 12B) or wild-type if they only had one (WT). Then, the percentage of multivulva animals were calculated with eq 1. [drawing 1] 1
# Additionally, the number of vulvas of the multivulva animals were counted. Two independent assays were performed with n ≥ 25 and the statistical significance was estimated by the ANOVA test.
# A2780 cells [2] = experiment: Scanning electron microscopy of cell morphology; format: cell-based, human; settings: A2780, 24 h
# Description: A2780 cells were treated with CDDP and Re9 for 24 h. Cells then were fixed with 4% PFA fix solution for 30 min and washed with PBS three times. Sample were dehydrated through a graded series of ethanol (30, 50, 70, 95, and 100%), dried by the tertiary butanol method, and then imaged with a SEM operating at 20.0 kV.
# HeLa = experiment: MTT antiproliferative activity in HeLa cells; format: cell-based, human; settings: MTT test, 48 h of treatment
# Description: as §1
# BGM = experiment: MTT test in nontumorigenic BGM cells; format: cell-based, buffalo green monkey; settings: 48 h of treatment, normal cells
# Description: as §1
# A2780 cells [3] = experiment: Annexin V-FITC/PI dual staining, flow cytometry; format: cell-based, human; settings: 10 μM, 24 h
# Description: The annexin V/PI assay was performed following the instructions provided by the manufacturer (Roche). A2780 cells were seeded in 12-well plates at a density of 3 × 10^5 cells/well and incubated overnight. […] After the treatment, the cells were collected and stained with annexin V and PI, following the procedure mentioned earlier. The staining was carried out at room temperature for 15 min in the absence of light, and the samples were immediately analyzed using flow cytometry (FACSCalibur Beckton Dickinson) with an excitation wavelength of 488 nm. The absorbance at 488 nm of compound Re9 was considered negligible. The data obtained from the assay were analyzed using FlowJo Software (TreeStar).
# A2780 cells [4] = experiment: DNA damage by pH2AX staining, flow cytometry; format: cell-based, human; settings: A2780, 24 h
# Description: DNA damage was evaluated by flow cytometry in A2780 cells. […] Cells were then collected by trypsinization, washed with PBS, and fixed in 200 μL 0.2% PFA for 5 min. After fixation, cells were pelleted, suspended in a 3% FBS solution containing anti phospho-H2AX ([…]) FITC-conjugated monoclonal antibody (CR55T33, eBioscience) at a concentration of 0.6 μg/mL, and incubated for 2 h at room temperature in the dark. Analysis of stained cells was carried out using a Becton Dickinson FACSCalibur flow cytometer with 10,000 acquisitions per sample, registering the FL1-H channel (λexc = 488 nm). Two independent experiments, each with n = 2, were conducted.
Compound,mitochondrial membrane potential (MMP) levels (A2780 cells [1]),reduction of tumor size (C. elegans strain JK1466) [%],IC50 (A2780) [µM],"progeny, share of the expected brood (wild-type C. elegans; L4 animals) [%]","reduction of animal size (wild-type C. elegans; wild-type larvae, 48 h) [%]","development stage (wild-type C. elegans; wild-type, 48 h)",reduction of MT phenotypic incidence (C. elegans strain MT2124; 50 μM) [%],reduction of the number of vulvas (C. elegans strain MT2124; 50 μM) [%],"MT (multivulva animals) (C. elegans strain MT2124; 50 μM, 72 h) [%]","WT (wild-type nematodes) (C. elegans strain MT2124; 50 μM, 72 h) [%]","n° vulvas (C. elegans strain MT2124; 50 μM, multivulva phenotype nematodes)",effect of concentrations above 50 μM on the nematodes (C. elegans strain MT2124; in vivo),cell death type from SEM morphology (A2780 cells [2]),IC50 (HeLa) [µM],IC50 (BGM) [µM],"Q2 cells (annexin V+/PI+, late apoptotic or pyroptotic) (A2780 cells [3]) [%]","Q3 cells (annexin V+/PI–, early apoptotic) (A2780 cells [3]) [%]",DNA damage (pH2AX staining) (A2780 cells [4])
"CCCCCC[C@H]1C(=O)O[C@H](C)[C@H](NC(=O)c2cccc(NC=O)c2O)C(=O)O[C@@H](C)[C@@H]1OC(=O)CC(C)C [antimycin A, Antimycin A]",significant decrease in MMP levels,,,,,,,,,,,,,,,,,
N.N.[Cl][Pt][Cl] [cisplatin],,48,2.9 ± 0.4,10,75,L2 stage,58.2,52,34.62,65.38,1.40,developmental arrest,apoptosis,23.3 ± 2,6.8 ± 0.9,16.9,13.8,significantly contributed to the induction of DNA damage
